Values quoted from earlier work as cited in patent US20040096492A1, “Cicatrizant hydrocolloidal patch containing hyaluronic acid and chondroitin sulphate” (priority 2001, published 2004).

System: full thickness (300 mm^2) cutaneous wound
Conditions: rats

## sodium chondroitin sulphate
8 days after the second application of 30 mg
  residual area in the treated group relative to the control group: half
One or two applications of 30 mg, vs control
  reduction of the damaged surface (planimetry): more rapid
Vs control
  clinical signs connected with the lesion (edema-exudate): decreased more quickly
